We go through 3 compounds from PMC8350192 (Heliyon, 2021).

In test [1] the target is T1, Porcine Pancreas Lipase (PPL) (Sus scrofa, UniProt P00591).
T1 sequence (P00591 1-450): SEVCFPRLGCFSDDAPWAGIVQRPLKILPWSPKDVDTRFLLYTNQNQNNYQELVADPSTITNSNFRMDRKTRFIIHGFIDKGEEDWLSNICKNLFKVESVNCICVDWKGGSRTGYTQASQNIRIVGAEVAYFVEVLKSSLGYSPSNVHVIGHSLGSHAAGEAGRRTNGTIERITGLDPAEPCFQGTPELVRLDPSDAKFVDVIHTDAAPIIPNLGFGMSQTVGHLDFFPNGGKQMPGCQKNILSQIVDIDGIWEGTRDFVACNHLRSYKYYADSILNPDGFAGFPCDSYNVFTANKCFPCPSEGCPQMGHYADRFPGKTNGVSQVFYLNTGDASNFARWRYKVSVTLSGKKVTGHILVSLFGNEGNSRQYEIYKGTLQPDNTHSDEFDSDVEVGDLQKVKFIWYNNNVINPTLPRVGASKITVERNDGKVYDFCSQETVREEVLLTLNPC
Nature of the test: Inhibition of lipase activity assay in vitro. The test is classed as biochemical. The note with it: for inhibition at 6.25 µg/mL / inhibition at 12.5 µg/mL / inhibition at 25 µg/mL / inhibition at 50 µg/mL / inhibition at 100 µg/mL / inhibition at 200 µg/mL: read-out: Inhibition Percentage (%).

Test [2] deals with gastrointestinal and pancreatic lipases. The following applies: ref Guercioloni, 1997; Bellinger and Peikin, 2002; Othman et al., 2021; cited from earlier work.

Regarding `O=C(/C=C/c1ccc(O)c(O)c1)O[C@@H]1C[C@](O)(C(=O)O)C[C@@H](O)[C@H]1O` [Compound 3, Chlorogenic acid], in test [1], the IC50 (commonly the midpoint of a concentration-inhibition curve) is 33.6 µM, the inhibition (usually how much of the control response was suppressed) at 6.25 µg/mL amounted to 29.4%, the inhibition at 12.5 µg/mL amounted to 59.2% and the inhibition at 25 µg/mL stood at 64.2%. For the same compound, in test [1], the inhibition at 50 µg/mL turned out to be 77.6%, the inhibition at 100 µg/mL was found to be 86.7% and the inhibition at 200 µg/mL was 89.6%.
`CCCCCCCCCCC[C@@H](C[C@@H]1OC(=O)[C@H]1CCCCCC)OC(=O)[C@H](CC(C)C)NC=O` [Orlistat]: the “prevention of absorption of dietary fat” value in test [2] is reported as “approximately 30%”. Also, in test [1], the inhibition at 6.25 µg/mL worked out at 50.6%, the inhibition at 12.5 µg/mL is 52.4%, the inhibition at 25 µg/mL was 55.6% and the inhibition at 50 µg/mL is 77.3%. Also, in test [1], the inhibition at 100 µg/mL is 89.4% and the inhibition at 200 µg/mL is 93.3%.
Take `Cn1c(=O)c2c(ncn2C)n(C)c1=O` [Compound 2, caffeine]: in test [1], the 50% inhibitory concentration (IC50) was 80.3 µM, the inhibition at 6.25 µg/mL is 34%, the inhibition at 12.5 µg/mL is 38.6% and the inhibition at 25 µg/mL amounted to 64.6%. Besides, in test [1], the inhibition at 50 µg/mL was found to be 76.2%, the inhibition at 100 µg/mL came out at 81.4% and the inhibition at 200 µg/mL turned out to be 83.9%.
